ChEMBL document CHEMBL4033656, “Organocatalyzed and mechanochemical solvent-free synthesis of novel and functionalized bis-biphenyl substituted thiazolidinones as potent tyrosinase inhibitors: SAR and molecular modeling studies” (Eur J Med Chem, 2017)

The compounds below were run against Mushroom tyrosinase (Agaricus bisporus, UniProt O42713+Q00024+C7FF04+C7FF05) (assay: Inhibition of mushroom tyrosinase preincubated for 5 mins followed by addition of […] as substrate measured after 30 mins).

IC50	Structure (SMILES)
4.41 µM	COc1ccc(C2SCC(=O)N2c2ccc(-c3ccc(N4C(=O)CSC4c4ccc(OC)cc4)cc3)cc2)cc1 (stereo not drawn)
< 500 µM	Cc1cc(-c2ccc(N3C(=O)CSC3c3ccc(N(C)C)cc3)c(C)c2)ccc1N1C(=O)CSC1c1ccc(N(C)C)cc1 (stereo not drawn)
2.41 µM	COc1cc(C2SCC(=O)N2c2ccc(-c3ccc(N4C(=O)CSC4c4ccc(O)c(OC)c4)cc3)cc2)ccc1O (stereo not drawn)
342.52 µM	O=C1CSC(c2ccc(O)cc2)N1c1ccc(-c2ccc(N3C(=O)CSC3c3ccc(O)cc3)cc2)cc1 (stereo not drawn)
7.71 µM	Cc1cc(-c2ccc(N3C(=O)CSC3c3ccccc3)c(C)c2)ccc1N1C(=O)CSC1c1ccccc1 (stereo not drawn)
21.61 µM	O=C1CSC(c2ccccc2)N1c1ccc(-c2ccc(N3C(=O)CSC3c3ccccc3)cc2)cc1 (stereo not drawn)
0.61 µM	O=C1CSC(c2ccccc2O)N1c1ccc(-c2ccc(N3C(=O)CSC3c3ccccc3O)cc2)cc1 (stereo not drawn)
2.81 µM	COc1cc(C2SCC(=O)N2c2ccc(-c3ccc(N4C(=O)CSC4c4ccc(O)c(OC)c4)c(C)c3)cc2C)ccc1O (stereo not drawn)
